pIC50: −log10 of the molar value. Where two headings read alike, the source gives them in different places.
Legend:
[1] = system: BE-3 human esophageal adenocarcinoma cell line; assay: Trypan blue exclusion test, cell viability; type: cell-based; settings: BE-3, 72 hours, read-out: IC50 (concentration required to reduce viability by 50%)
Method: (§1) Cell lines used in the present disclosure include human esophageal squamous carcinoma cell lines CE81T/VGH and TE-2, and human esophageal adenocarcinoma cell lines BE-3 and SKGT-4. Each cell lines were cultured and maintained in Dulbecco's modified Eagle media (DMEM) supplemented with 10% fetal calf serum, 100 IU/ml penicillin, 100 μg/ml streptomycin, and 2 mM glutamine in 5% CO2 at 37° C.
(§2) The dye exclusion test is used to determine the number of viable cells present in a cell suspension. […] In this test, the cells were first treated with a test compound (i.e., CH-205-O) for a certain period of time (e.g., 72 hours), then the cells were harvested and re-suspended in suitable buffer solution. The cell suspension was then mixed with trypan blue dye and then visually examined to determine whether cells had taken up or excluded the dye. A viable cell will have a clear cytoplasm, whereas a nonviable cell will have a blue cytoplasm. The concentration required to reduce viability by 50% (IC50) after 72 hours was extrapolated from the dose-response curves by different concentrations of the test compound using a second-order polynomial regression model and analyzing with SigmaPlot Software (Systat Software Inc., San Jose, Calif.).
(§3) The human esophageal cancer cell lines including squamous cell carcinoma cell lines CE81T/VGH and TE-2, and adenocarcinoma cell lines BE-3 and SKGT-4 were cultured and maintained by procedures described above in the “Materials and Methods” Section. Anti-proliferative activity of armillaridin (hereafter “CH-205-O”) on each cell lines was assessed by cell viability and cell cycle analysis.

[2] = system: CE81T/VGH human esophageal squamous carcinoma cell line; assay: Trypan blue exclusion test, cell viability; type: cell-based; settings: read-out: IC50 (concentration required to reduce viability by 50%)
Method: as §1, §2, §3

[3] = system: SKGT-4 human esophageal adenocarcinoma cell line; assay: Trypan blue exclusion test, cell viability; type: cell-based; settings: SKGT-4, 72 hours, read-out: IC50 (concentration required to reduce viability by 50%)
Method: as §1, §2, §3

[4] = system: TE-2 human esophageal squamous carcinoma cell line; assay: Trypan blue exclusion test, cell viability; type: cell-based; settings: TE-2, 72 hours, read-out: IC50 (concentration required to reduce viability by 50%)
Method: as §1, §2, §3

[5] = system: CE81T/VGH cells; assay: Cell cycle analysis by flow cytometry (propidium iodine); type: cell-based, human
Method: FIG. 1 illustrates the effects of CH-205-O (i.e., armillaridin) on cell cycle distribution in CE81T/VGH cells in accordance with one embodiment of this invention, in which upper panels represented results obtained from CE81T/VGH cells treated with 0 (panel A), 10 μM (panel B) or 20 μM (panel C) of CH-205-O for 48 hours, and lower panels represented results obtained from CE81T/VGH cells treated with 0 (panel D), 10 μM (panel E) or 20 μM (panel F) of CH-205-O for 72 hours;
Cultured cells with or without pre-treatment of the compound of this invention (i.e., armillaridin at 10 or 20 μM for 48 or 72 hours) were harvested from the cultured media and fixed by incubating with 75% iced cold ethanol at 4° C. for at least over night. The fixed cells were then warmed up to room temperature and treated with RNAase A for about 30 min. Precipitated cells were collected by centrifugation and re-suspended in a buffer solution containing propidium iodine (20 μg/ml) before being subject to flow cytometry analysis, where cell numbers at respective cell cycles were determined.

[6] = system: CE81T/VGH cells; assay: Radiation treatment and clonogenic assay; type: cell-based, human; settings: pre-treatment 2.5 or 5 μM for 24 hours, then 0-4 Gy radiation, colonies counted after 14 days
Method: Approximately 100 variable tumor cells were respectively plated onto 35-mm six-well culture dishes and were allowed to grow in DMEM medium contained 10% FCS mixed with 0, 1.25, 2.5 or 5 μM of the test compound of this disclosure (i.e., CH-205-O), and the test compound-treated cells were continued culture for 24 hours. The test compound was then washed out, and cells were subject to radiation treatment. Specifically, 6 MeV electron beam energy was delivered by a linear accelerator (Clinac 1800, Varian Associates, Inc., Palo Alto, Calif., USA) with a rate of 2.4 Gy/min at various dose including 0, 0.5, 1, 2, 3 and 4 Gy in a single fraction. Full electron equilibrium was ensured for each fraction by a parallel plate PR-60C ionization chamber (CAPINTEL, Inc., Ramsey, N.Y., USA).
After radiation treatment, cells were returned to the culture for another 14 days; then were stained with 3% crystal violet and the numbers of colony (≧50 cells) were counted.
To this purpose, cancerous cells were pre-treated with 1.25, 2.5 or 5 μM CH-205-O, before being treated with various doses of radiation in accordance with procedures described in “Materials and Methods” section. […]

[7] = system: CE81T/VGH cells xenografted esophageal tumor; assay: Xenograft esophageal cancer mice model; type: in vivo, Balb/c nude mice
Method: For primary esophageal cancer model, total of 9 Balb/c nude mice at the age of 6 weeks were randomly divided into 3 groups, with 3 mice in each group. To start the experiment, each mice were injected with 5×10^5 CE81T/VGH cells subcutaneously to generate esophageal cancer on day 0, and then returned to culture for another 21 days to allow tumor progression. To evaluate the efficacy of the test compound, mice in the test group were given 3 doses of the test compound (CH-205-O at 80 mg/Kg/dose; or cisplatin at 2.5 mg/Kg/dose) every week, and total of […] were given during a period of 20 days after treatment started on day 22. Tumor sizes were measured using calipers. The body weight and the white blood cell counts of each mice were respectively recorded every day throughout the experiment. Tumor volume was calculated using the formula: volume=width^2×length×0.52.
Effects of CH-205-O of this disclosure on mice grafted with CE81T/VGH cells were investigated by measuring the grafted tumor volume; body weight and the number of white blood cells of the mice in accordance with steps described in “Materials and Methods” section. Results are illustrated in FIG. 3.

[8] = long-term exposure, 80 mg/Kg/dose, 12 doses

- pIC50 [1]: 5.27
- pIC50 ([1]; Homo sapiens, 72 h): ~5.30
- pIC50 ([2]; 72 hours): 5.16
- pIC50 ([2]; Homo sapiens, CE81T, 72 h): ~5.15
- pIC50 ([3]; Homo sapiens, SKGT4, 72 h): ~5.30
- pIC50 [3]: 5.26
- pIC50 ([4]; Homo sapiens, 72 h): ~5.52
- pIC50 [4]: 5.47
- Number of white blood cells of the mice [7, 8]: does not affect
Structure (SMILES): COc1cc(O)c(C(=O)O[C@@H]2C[C@]3(C)C4CC(C)(C)CC4C=C(C=O)[C@]23O)c(C)c1Cl (stereo partly drawn) [CH-205-O, (2R,2aS,7bR)-3-formyl-2,2a,4a,5,6,7,7a,7b-octahydro-2a-hydroxy-6,6,7b-trimethyl-1H-cyclobuta[e]inden-2-yl 3-chloro-6-hydroxy-4-methoxy-2-methylbenzoate]
- Cell cycle arrest at G2/M phase ([5]; 10 or 20 μM for 48 hours, CE81T/VGH cells): capable of arresting the CE81T/VGH cells at G2/M phase in a dose-dependent manner
- sub-G1 population of cells ([5]; 10 or 20 μM, treatment for 72 hours, CE81T/VGH cells): induce an increase in the sub-G1 population of cells
- Esophageal cancerous cells arrested at G2/M cycle ([5]; one specific example): at least 50%
- Susceptibility of CE81T/VGH cells to radiation treatment (colony formation) [6]: capable of enhancing the susceptibility of CE81T/VGH cells to radiation treatment
- Volume of the xenografted esophageal tumor ([7]; 80 mg/Kg/dose, at least 12 doses, compared with control mice (vehicle only)): effective in reducing the volume of the xenografted esophageal tumor significantly
- Body weight of the mice [7, 8]: does not affect
- Reduction of the size of the cancer as compared with control ([7]; long-term exposure, at least 12 doses within 20 days, 3 doses per week): at least 50%
